Data taken from the METLIN SMRT retention time set (Domingo-Almenara et al. 2019).

assay: gradient 5% acetonitrile 3 min, to 50% in 2 min, to 85% in 15 min, held 3 min, 100 µL/min; details: column: Zorbax Extend-C18 2.1 x 50 mm; eluents: water / acetonitrile, 0.1% formic acid
In short: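 Retention times of pure standards were taken from adduct peaks that were selected by computer and manually inspected. Over 3 months, mixtures of ~100 molecules were run by HPLC–quadrupole time-of-flight mass spectrometry in positive and negative ionization mode. The Zorbax Extend-C18 column (2.1 × 50 mm, 1.8 μm) ran at 100 μL/min in water and acetonitrile, each containing 0.1% formic acid, with 40 μL dead volume and 900 μL dwell volume.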

Compound | RP-LC retention time [s]
CCOC(=O)[C@@H](C)NC(=O)C1CCN(S(=O)(=O)c2ccc(C)cc2)CC1 | 787
Cc1ccc(-n2cccc2CC(=O)NCc2ccc3c(c2)OCO3)cc1 | 946
Cc1ccc(S(=O)(=O)NCCc2cn(CC(C)C)c3ncccc23)cc1C | 978
Cc1ccc(F)cc1NC(=O)Cn1nc2cc(-c3ccccn3)nc(C)n2c1=O | 767
Cc1ccccc1C(=O)NCCc1cn(CC(C)C)c2ncccc12 | 808
COc1ccc(S(=O)(=O)NCCS(=O)(=O)N2CCN(c3ccccc3)CC2)cc1 | 849
COc1ccc(-c2ccc(=O)n(Cc3nc(-c4ccccc4Cl)no3)n2)cc1 | 962
CCOC(=O)N1CCN(c2cc(C(=O)O)c3cc(NC(=O)c4ccc(Cl)cc4)ccc3n2)CC1 | 667
Cc1ccccc1-c1noc(Cn2c(=O)n(CCc3ccccc3)c(=O)c3sccc32)n1 | 1200
Cn1nccc1-c1cccc(-c2noc(-c3cc(F)ccc3F)n2)c1 | 1100
C=CCNC(=O)C1CCN(C(=O)Nc2ccc(NC(=O)Nc3ccc(C)c(C)c3)cc2)CC1 | 740
Cc1cccc(-c2nc(Cn3nnc(-c4nc(-c5ccncc5)no4)c3C)c(C)o2)c1 | 1070
Cn1ncc2c(Nc3ccc([N+](=O)[O-])cc3)nc(Cl)nc21 | 963
Cc1ccc(C)c(NC(=O)CCCN2C(=O)COc3ccc(C)cc32)c1 | 978
CN(C)CCNCc1ccc(-c2ccc(Cl)cc2Cl)o1 | 609
COc1ccccc1N1CCN(c2nccc(-n3nc(C)cc3C)n2)CC1 | 1010
COc1ccc(-c2nc(C3CC(=O)N(c4ccc(F)cc4)C3)no2)cc1F (stereo not given) | 969
O=C1CC(c2noc(Cc3ccc(F)cc3)n2)CN1c1ccc(F)c(Cl)c1 (stereo not given) | 1040
O=C(CCc1csc(NC(=O)c2cccs2)n1)NCCc1c[nH]c2ccccc12 | 755
CCOc1ccc(-c2noc(CN3N=NC4C(=O)N(c5cccc(F)c5)C(=O)C43)n2)cc1OC (stereo not given) | 926
CCOc1ccc(S(=O)(=O)NCc2c(-c3ccccc3)nc3sc(CC)nn23)cc1 | 963

Compound | RP-LC retention time [s]
Cc1ccn2c(Nc3ccc4c(c3)OCCO4)c(-c3ccccc3O)nc2c1 | 670
CCN(C(=O)Cn1cnc2nc3c(cc2c1=O)CCCC3)c1cccc(Cl)c1 | 850
CCCCn1cc(S(=O)(=O)NCc2ccccc2F)c2cccnc21 | 754
COCC(=O)NC1CCC12CCN(S(=O)(=O)C(C)C)CC2 (stereo not given) | 682
COCCn1ccc2nc(C)c(C(=O)NCc3cccs3)cc2c1=O | 656
CC(=O)c1ccc(NC(=O)Cn2cccc2-c2nc(-c3ccc4c(c3)OCO4)no2)cc1 | 923
CC(=O)c1cccc(NC(=O)Cc2csc3nc(-c4ccccc4)cn23)c1 | 729
CCCn1c(C)cnc1C1CN(C(=O)C(C)C)C1 | 553
CCCCCOC(=O)Nc1nc(=O)n([C@@H]2O[C@H](C)[C@H](O)C2O)cc1F (stereo not given in full) | 682
COC(=O)c1ccc(NC(=O)N(C)CCc2noc(-c3ccccc3)n2)cc1 | 840
CN(CCc1noc(COc2cccc(C(F)(F)F)c2)n1)C(=O)c1ccco1 | 919
Cc1ccn2c(Nc3ccc4c(c3)OCO4)c(-c3ccc(Cl)cc3)nc2c1 | 736
COc1ccc(OCc2noc(CNC(=O)C(C)n3nnc4ccccc4c3=O)n2)cc1 (stereo not given) | 768
CCCCOc1ccc(-c2nc3ncccn3c2NC2CCCCC2)cc1 | 957
CCCn1ccc2oc(C)c(C(=O)NCc3ccccc3Br)c2c1=O | 1110
COc1ccc(OC)c(NS(=O)(=O)c2c(C)nn(-c3ccc(-c4ccc(C)cc4)nn3)c2C)c1 | 1110
COc1cccc(C2Cn3nnc(-c4nc(-c5ccccc5Cl)no4)c3CO2)c1 (stereo not given) | 1150
Cn1nnc2cc(CNC(=O)c3ccc(F)cc3)ccc21 | 686
CC(=O)NCc1ccc(-c2noc(-c3ccc(Br)cc3)n2)s1 | 938
Cc1cc(-c2ccccc2)nc(Nc2nc(-c3ccccc3)c(CC(=O)O)s2)n1 | 922
CCc1ccc(NC(=O)Cc2c(C)nn(-c3nc(-c4ccc(Cl)cc4)cs3)c2C)cc1 | 972

The next lines start with the values.

RP-LC retention time [s] | Compound
1170 | O=S(=O)(c1ccccc1)N1CCc2nc(-c3ccc(Cl)cc3)ncc2C1
598 | Cn1c(C(=O)N2CCN(c3ccccn3)CC2)cc2sccc21
894 | Fc1ccc(CN2CCO[C@@H](COc3ccccn3)[C@@H]2c2ccccc2)c(F)c1
571 | COc1ccc(C(=O)N2CCN(c3cc(C)n4cnnc4n3)CC2)cn1
532 | O=C(NCCc1cccnc1)C1CCc2nc(N3CCCC3)ncc2C1 (stereo not given)
1010 | O=C(CSc1cc(N2CCN(c3ccccc3F)CC2)ncn1)N1CCc2ccccc21
562 | O=C(NCCc1ccccc1)NCC1CCN(Cc2ccco2)CC1
645 | Cc1noc(CNC(=O)C2CCN(C(=O)CSc3ccc(F)cc3)CC2)n1
933 | CC(C(=O)Nc1cccc(Cl)c1)C1CCN(C(=O)Nc2ccc(F)cc2)CC1 (stereo not given)
611 | COc1cc(CN2CCCCCC2c2cccs2)ccc1OCC(N)=O (stereo not given)
599 | O=C(C1CCN(c2cnc(N3CCCCC3)nc2)CC1)N1CCOCC1
554 | O=C(C1CCN(c2cncnc2N2CCCCC2)CC1)N1CCCC1
640 | Cc1ccc(CN2CCN(CC(=O)N3CCN(Cc4ccccc4)CC3)C(=O)C2=O)cc1
685 | CC1CCN(CCCC(=O)c2ccc(F)cc2)CC1
998 | Cc1ccc(Cn2c(=O)c(N3CCN(C(=O)C4CCCO4)CC3)nc3cccnc32)cc1 (stereo not given)
910 | Cc1ccc(-c2nocc2CCC(=O)NCc2ccccc2)cc1
674 | COC(=O)Cn1c(C2CC(=O)N(c3ccccc3OC)C2)nc2ccccc21 (stereo not given)
550 | Cc1ccc(C(O)CN2CCN(c3ccccn3)CC2)cc1 (stereo not given)
1080 | CCOC(=O)c1c(NC(=O)CN2CCN(c3ncccn3)CC2)sc2c1CCC2
610 | O=C(C1CCCO1)N1CCC2(CC1)NCCc1c2[nH]c2ccccc12 (stereo not given)
648 | COC(=O)c1ccc(CSc2nc3ccccc3[nH]2)cc1
896 | O=C(Cn1cccc(-c2nc(-c3ccc(Br)cc3)no2)c1=O)NC1CCCC1
893 | O=C(c1ccco1)N1CCN(c2ccc(-c3nc(-c4cccc(F)c4)no3)cn2)CC1
910 | COc1ccccc1NC(=O)NCCC1CCN(S(=O)(=O)c2ccccc2)CC1

RP-LC retention time [s] | Compound
527 | O=C(Nc1ccc2c(c1)CNCCO2)C1CC1
788 | C=CCn1ccc2c(OCC(=O)NC3CCCC3)cccc2c1=O
710 | Cc1ccc(CNC(=O)C2CCN(c3nnc(C)c4c(C)n(-c5ccccc5)nc34)CC2)o1
627 | CC(C(=O)N1CCC(N2CCCCC2)CC1)C1CCN(S(=O)(=O)c2cccs2)CC1 (stereo not given)
865 | O=C(Cc1ccsc1)N1CCC2(CC1)N=C(c1ccc(Cl)cc1)NO2
934 | CCc1cccc(NC(=O)N2CCc3c(c(COc4ccccc4)nn3C)C2)c1
1040 | Cc1ccc2c(c1)N(S(C)(=O)=O)CCC(C(=O)Nc1ccccc1Br)O2 (stereo not given)
804 | O=C(c1ccccc1Cl)N1CCN(c2cc(-c3ccccc3)[nH]n2)CC1
568 | O=C1NC(C(=O)N2CCOCC2)Cn2cccc21 (stereo not given)
686 | O=C(Cn1c(=O)c2cccn2c2ccc(F)cc21)N1CCOCC1
595 | Cn1ncc2c3ccccc3n(CC(=O)NCCN3CCCCC3)c2c1=O
650 | CCc1nc2ccccc2c(C(=O)NC2CCCCC2)c1C
579 | COc1ccc(CC(=O)NCC2CCC(c3nc4ccccc4n3C)CC2)cc1 (stereo not given)
703 | CCCOC(=O)Cn1c(=O)oc2cc(S(=O)(=O)N3CCN(c4ccccn4)CC3)ccc21
671 | CC(C)NC(=O)C(=O)NCC(c1ccc2c(c1)CCCN2C)N1CCCCC1 (stereo not given)
681 | CN1CCN(S(=O)(=O)c2ccc(Cl)c(-c3nnc(-c4ccccc4)o3)c2)CC1
728 | O=C1CC(c2nc(-c3cccnc3)no2)CN1c1ccc2c(c1)OCO2 (stereo not given)
760 | CCc1cccc(NS(=O)(=O)c2cc(-c3[nH]ncc3C(=O)N3CCCC3)oc2C)c1
720 | CC(=O)N1CCc2cc(N3CC(C(=O)Nc4ccc(C)cc4)CC3=O)ccc21 (stereo not given)
719 | O=C(c1cnc2ccccc2n1)N1CCN(Cc2nc(-c3ccc(F)cc3)cs2)CC1
746 | O=C(c1cccc2c1CCN2C(=O)C1CC1)N1CCCCC1
968 | O=C(Cn1nc2c3cc(-c4ccc(F)cc4)nn3ccn2c1=O)N1CCCc2ccccc21
718 | COc1ccc(CNS(=O)(=O)c2cc(-c3[nH]ncc3C(=O)N3CCCC3)oc2C)cc1
943 | O=C(NCC1CCCO1)c1cccn1Cc1noc(-c2ccc(Cl)cc2)n1 (stereo not given)
